Reference: patent EP4741406A1, “NEUROKININ-1 RECEPTOR ANTAGONIST COMPOUND” (Creadev (Nanjing) Pharmaceutical Technology Co., Ltd., priority 2023, dated 2025)
Converted amounts (≈) assume the structure as drawn.

What was measured:
[1] = In vivo pharmacokinetic study in rats, intravenous; settings: rat, 2 mg/kg
Thermodynamic solubility = type: physicochemical; settings: aqueous buffer, thermodynamic from solid; 100 mM phosphate buffer pH 7.4, room temperature, shaking 16 hours
[2] = system: red blood cell suspension; test: In vitro human hemolysis assay; type: cell-based; settings: concentrations as high as 200 µM, 37 °C, 45 minutes
[3] = Pharmacokinetic study in crab-eating monkeys, intravenous infusion; settings: monkey, 2 mg/kg
[4] = Liver S9 stability assay (conversion to parent drug); type: in vitro ADME; settings: human liver S9 with NADPH, 37 °C
Protocol: Human pooled liver S9 (Vendor: Xenotech), thawed in a 37°C water bath before use.
Weigh a certain amount of the example compound, dissolve in DMSO to prepare a 10 mM stock solution, then dilute an appropriate volume of the stock solution with DMSO to obtain a 200 µM working solution.
Take 1.5 µL of the 200 µM working solution of the example compound and add it to 238.5 µL of liver S9 working solution, pre-incubate in a 37°C water bath for 5 min; then add 60 µL of NADPH working solution to initiate the reaction and mix by gentle inversion. At the 0 min time point, transfer the above mixture into quenching solution and mix; at the 5, 15, 30, and 60 min time points, transfer the mixture into quenching solution and DMSO and mix. […] Collect the supernatant for LC-MS analysis.

[5] = Plasma stability assay (conversion to parent drug); type: in vitro ADME; settings: human plasma, 37 °C, 1 µM
Protocol: Human plasma (Vendor: AoNeng Biotech).
A certain amount of the compound of the examples was weighed and dissolved in DMSO to prepare a 10 mM stock solution. An aliquot of the 10 mM stock solution was diluted with DMSO to obtain a 1600 µM intermediate solution. An aliquot of the 1600 µM intermediate solution was further diluted with 45% methanol to prepare a 16 µM working solution.
• 1) Plasma was pre-incubated in a water bath at 37 °C for 5 min. • 2) 4 µL of the 16 µM working solution of the compound of the examples was added to 60 µL of plasma to give a final compound concentration of 1 µM, and the mixture was gently mixed. • 3) Samples were incubated at each time point (0, 15, 30, 60, and 120 min). After incubation, 192 µL of acetonitrile containing an internal standard was added, followed by shaking on a shaker for 1 min. The mixture was centrifuged at 3700 rpm at 4 °C for 20 min, and the supernatant was collected for LC-MS analysis.

[6] = time point 0 min, parent drug = Lorapiprant

Row | AUC(0-t) ([1]; whole blood) [ng·h/mL] | Cmax ([1]; whole blood) [ng/mL] | MRT inf ([1]; whole blood) [min] | Tmax ([1]; whole blood) [min] | half-life ([1]; whole blood) [min] | solubility at 16 h (Thermodynamic solubility) [mg/mL] | Structure (SMILES) | Parent drug% [4, 6] [%] | Parent drug% ([4]; time point 5 min) [%] | Parent drug% ([4]; time point 15 min) [%] | Parent drug% ([4]; time point 30 min) [%] | Parent drug% ([4]; time point 60 min) [%] | also measured
1 | 19.9 | 116 | 7.56 | 5 | 8.34 | 6.54 (≈ 8.6 mM) | C[C@@H](OC[C@@]1(c2ccccc2)CC[C@]2(CCC(=O)N2)CN1C(=O)OCSSCCCOS(=O)(=O)O)c1cc(C(F)(F)F)cc(C(F)(F)F)c1 [Example 39] |  |  |  |  |  | hemolytic activity [2]: no hemolytic activity
2 | 82.6 | 328 | 21 | 5 | 26.3 |  | C[C@@H](OC[C@@]1(c2ccccc2)CC[C@]2(CCC(=O)N2)CN1C(=O)OCOP(=O)(O)O)c1cc(C(F)(F)F)cc(C(F)(F)F)c1 [Compound of formula (I), reference compound] |  |  |  |  |  | AUC(0-t) ([3]; whole blood): 688 ng·h/mL; Cmax ([3]; whole blood): 2110 ng/mL; Tmax ([3]; whole blood): 30 min; half-life ([3]; whole blood): 9.06 min
3 |  |  |  |  |  | 10.9 (≈ 13.2 mM) | C[C@@H](OC[C@@]1(c2ccccc2)CC[C@]2(CCC(=O)N2)CN1C(=O)OCSSCCOCCOCCOCCC(=O)O)c1cc(C(F)(F)F)cc(C(F)(F)F)c1 [Example 47] |  |  |  |  |  | 

Continued, molecule first:

Row | Structure (SMILES) | AUC(0-t) ([1]; whole blood) [ng·h/mL] | Cmax ([1]; whole blood) [ng/mL] | MRT inf ([1]; whole blood) [min] | Tmax ([1]; whole blood) [min] | half-life ([1]; whole blood) [min] | solubility at 16 h (Thermodynamic solubility) [mg/mL] | Parent drug% [4, 6] [%] | Parent drug% ([4]; time point 5 min) [%] | Parent drug% ([4]; time point 15 min) [%] | Parent drug% ([4]; time point 30 min) [%] | Parent drug% ([4]; time point 60 min) [%] | also measured
4 | C[C@@H](OC[C@@]1(c2ccccc2)CC[C@]2(CCC(=O)N2)CN1C(=O)OCSSCCC(=O)O)c1cc(C(F)(F)F)cc(C(F)(F)F)c1 [Example 33] |  |  |  |  |  |  | 13.2 | 22.5 | 41.9 | 50.0 | 57.3 | 
5 | C[C@@H](OC[C@@]1(c2ccccc2)CC[C@]2(CCC(=O)N2)CN1C(=O)OCSSCCS(=O)(=O)O)c1cc(C(F)(F)F)cc(C(F)(F)F)c1 [Example 42] |  |  |  |  |  | 13.2 (≈ 18.1 mM) | 34.8 | 40.6 | 48.5 | 51.9 | 44.0 | Parent drug% [5, 6]: 6.09%; Parent drug% ([5]; time point 15 min): 52.71%; Parent drug% ([5]; time point 30 min): 60.94%; Parent drug% ([5]; time point 60 min): 53.88%; Parent drug% ([5]; time point 120 min): 66.59%; AUC(0-t) ([3]; in vivo): 528 ng·h/mL; Cmax ([3]; in vivo): 1620 ng/mL; Tmax ([3]; in vivo): 30 min; half-life ([3]; in vivo): 6.06 min; AUC(0-t) ([1]; in vivo): 9.42 ng·h/mL; Cmax ([1]; in vivo): 61.2 ng/mL; MRT inf ([1]; in vivo): 5.45 min; Tmax ([1]; in vivo): 5 min; half-life ([1]; in vivo): 4.66 min
